According to patent US20240034736A1, “HSD17B13 INHIBITORS AND USES THEREOF” (FL2022-001, Inc., priority 2020, published 2024):

Target: Recombinant human HSD17B13 enzyme (Homo sapiens (Human), UniProt Q7Z5P4)
Test: HSD17b13 NAD(P)H-Glo Biochemical Assay
Conditions: 50 uM estradiol, 1 mM NAD+; read-out: HSD17β13 IC50
Description: Recombinant human HSD17B13 enzyme. Substrate: estradiol (Sigma β-Estradiol E8875), 100 mM in DMSO. […] Assay buffer final concentration: 20 mM Tris pH7.4 with 0.002% Tween-20 and 0.02% BSA. […] Enzymatic activity detected by NAD(P)H-Glo™ Detection System (Promega G9062).
Inhibitor compounds were serially diluted in DMSO and then further diluted in assay buffer to a 10× concentration consisting of 1% DMSO.
HSD17b13 enzyme was diluted in 1× assay buffer to the desired enzyme concentration based on the specific activity of the enzyme lot. 20 uL of diluted enzyme was added to each well along with 2.5 uL of 10× inhibitor solution. Assay plate was incubated at RT for 20 minutes, and then 2.5 uL of a 10× substrate/cofactor mix was added to each well for a final concentration of 50 uM estradiol and 1 mMNAD+. Assay plate was incubated at 37° C. for 3 hours. NAD(P)H-Glo™ Detection System reagents were prepared according to manufacturer's specifications, and 25 uL was added to each well. After incubating for 1 hour at RT, luminescence was measured.

Sequence of Recombinant human HSD17B13 enzyme (Q7Z5P4 20-300): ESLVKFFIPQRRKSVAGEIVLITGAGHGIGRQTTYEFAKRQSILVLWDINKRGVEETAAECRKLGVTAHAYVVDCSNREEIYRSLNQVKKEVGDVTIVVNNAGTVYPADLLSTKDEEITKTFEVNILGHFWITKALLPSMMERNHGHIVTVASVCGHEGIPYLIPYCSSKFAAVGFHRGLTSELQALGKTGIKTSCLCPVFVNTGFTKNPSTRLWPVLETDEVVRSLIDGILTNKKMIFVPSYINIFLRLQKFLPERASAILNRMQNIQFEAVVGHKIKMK

Row | Compound | IC50 [nM]
1 | N#Cc1ccc(-c2ccc3c(cnn3-c3ccc(F)c(O)c3)c2)c(Cl)c1 [Compound 5.11, 3-Chloro-4-(1-(4-fluoro-3-hydroxyphenyl)-1H-indazol-5-yl)benzonitrile] | 100 to 1000
2 | CNS(=O)(=O)c1ccc(-c2ccc3c(cnn3-c3ccc(F)c(O)c3)c2)cc1 [Compound 5.13, 4-(1-(4-Fluoro-3-hydroxyphenyl)-1H-indazol-5-yl)-N-methylbenzenesulfonamide] | 100 to 1000
3 | Oc1cc(-n2ncc3cc(-c4ccc(C(F)F)cc4)ccc32)ccc1F [Compound 5.15, 5-(5-(4-(Difluoromethyl)phenyl)-1H-indazol-1-yl)-2-fluorophenol] | 100 to 1000
4 | Cc1n[nH]c(C)c1-c1ccc2c(cnn2-c2ccc(F)c(O)c2)c1 [Compound 5.17, 5-(5-(3,5-Dimethyl-1H-pyrazol-4-yl)-1H-indazol-1-yl)-2-fluorophenol] | 100 to 1000
5 | COc1ccc(-c2ccc3c(cnn3-c3ccc(F)c(O)c3)c2)cc1 [Compound 5.22, 2-Fluoro-5-(5-(4-methoxyphenyl)-1H-indazol-1-yl)phenol] | 100 to 1000
6 | CN(C)S(=O)(=O)c1ccc(-c2ccc3c(cnn3-c3ccc(F)c(O)c3)c2)cc1 [Compound 5.25, 4-(1-(4-Fluoro-3-hydroxyphenyl)-1H-indazol-5-yl)-N,N-dimethylbenzenesulfonamide] | 100 to 1000
7 | CNC(=O)c1ccc(-c2ccc3c(cnn3-c3ccc(F)c(O)c3)c2)c(Cl)c1 [Compound 5.26, 3-Chloro-4-(1-(4-fluoro-3-hydroxyphenyl)-1H-indazol-5-yl)-N-methylbenzamide] | 100 to 1000
8 | Oc1cc(-n2ncc3nc(-c4ccc(O)c(Cl)c4)ncc32)ccc1F [Compound 5.28, 2-Chloro-4-(1-(4-fluoro-3-hydroxyphenyl)-1H-pyrazolo[4,3-d]pyrimidin-5-yl)phenol] | 1000 to 30000
9 | O=C(O)COc1ccc(-c2ccc3c(cnn3-c3ccc(F)c(O)c3)c2)cc1 [Compound 5.29, 2-(4-(1-(4-Fluoro-3-hydroxyphenyl)-1H-indazol-5-yl)phenoxy)acetic acid] | 1000 to 30000
10 | Oc1cc(-c2noc3cc(-c4ccc(O)c(Cl)c4)ccc23)ccc1F [Compound 5.30, 2-Chloro-4-(3-(4-fluoro-3-hydroxyphenyl)benzo[d]isoxazol-6-yl)phenol] | 100 to 1000
11 | Oc1cc(-n2ncc3cc(-c4cncc(Cl)c4)ccc32)cc(F)c1F [Compound 7, 5-(5-(5-Chloropyridin-3-yl)-1H-indazol-1-yl)-2,3-difluorophenol] | 100 to 1000
12 | COc1ccc(-c2ccc3c(cnn3-c3cc(O)c(F)c(F)c3)c2)cn1 [Compound 7.01, 2,3-Difluoro-5-(5-(6-methoxypyridin-3-yl)-1H-indazol-1-yl)phenol] | 100 to 1000
13 | Cc1ccc(-c2ccc3c(cnn3-c3cc(O)c(F)c(F)c3)c2)cn1 [Compound 7.02, 2,3-Difluoro-5-(5-(6-methylpyridin-3-yl)-1H-indazol-1-yl)phenol] | 100 to 1000
14 | Oc1cncc(-c2ccc3c(cnn3-c3cc(O)c(F)c(F)c3)c2)c1 [Compound 7.03, 5-(1-(3,4-Difluoro-5-hydroxyphenyl)-1H-indazol-5-yl)pyridine-3-ol] | 100 to 1000
15 | Nc1ccc(-c2ccc3c(cnn3-c3ccc(F)c(O)c3)c2)c(Cl)c1 [Compound 9, 5-(5-(4-Amino-2-chlorophenyl)-1H-indazol-1-yl)-2-fluorophenol] | 100 to 1000
16 | CC(C)S(=O)(=O)Nc1ccc(-c2ccc3c(cnn3-c3ccc(F)c(O)c3)c2)cc1 [Compound 11, N-(4-(1-(4-Fluoro-3-hydroxyphenyl)-1H-indazol-5-yl)phenyl)propane-2-sulfonamide] | 100 to 1000
17 | CS(=O)(=O)Nc1ccc(-c2ccc3c(cnn3-c3ccc(F)c(O)c3)c2)cn1 [Compound 11.02, N-(5-(1-(4-Fluoro-3-hydroxyphenyl)-1H-indazol-5-yl)pyridine-2-yl)methanesulfonamide] | 1000 to 30000
18 | CN(C)C(=O)c1nn(-c2ccc(F)c(O)c2)c2ccc(-c3ccc(O)c(Cl)c3)cc12 [Compound 14, 5-(3-Chloro-4-hydroxyphenyl)-1-(4-fluoro-3-hydroxyphenyl)-N,N-dimethyl-1H-indazole-3-carboxamide] | 100 to 1000

Second part, the compound after the results:

Row | IC50 [nM] | Compound
19 | 100 to 1000 | CN(C)C(=O)c1ccc(-c2ccc3c(cnn3-c3ccc(F)c(O)c3)c2)c(Cl)c1 [Compound 5.10, 3-Chloro-4-(1-(4-fluoro-3-hydroxyphenyl)-1H-indazol-5-yl)-N,N-dimethylbenzamide]
20 | 100 to 1000 | OCc1ccc(-c2ccc3c(cnn3-c3ccc(F)c(O)c3)c2)c(Cl)c1 [Compound 5.12, 5-(5-(2-Chloro-4-(hydroxymethyl)phenyl)-1H-indazol-1-yl)-2-fluorophenol]
21 | 1000 to 30000 | CS(=O)(=O)Nc1ccccc1-c1ccc2c(cnn2-c2ccc(F)c(O)c2)c1 [Compound 5.14, N-(2-(1-(4-Fluoro-3-hydroxyphenyl)-1H-indazol-5-yl)phenyl)methanesulfonamide]
22 | 100 to 1000 | Oc1ccc(-c2ccc3c(cnn3-c3ccc(F)c(O)c3)c2)c(C(F)(F)F)c1 [Compound 5.16, 2-Fluoro-5-(5-(4-hydroxy-2-(trifluoromethyl)phenyl)-1H-indazol-1-yl)phenol]
23 | 100 to 1000 | CC(=O)Nc1ccc(-c2ccc3c(cnn3-c3ccc(F)c(O)c3)c2)c(Cl)c1 [Compound 5.18, N-(3-Chloro-4-(1-(4-fluoro-3-hydroxyphenyl)-1H-indazol-5-yl)phenyl)acetamide]
24 | 100 to 1000 | Cc1cc(O)ccc1-c1ccc2c(cnn2-c2ccc(F)c(O)c2)c1 [Compound 5.19, 2-Fluoro-5-(5-(4-hydroxy-2-methylphenyl)-1H-indazol-1-yl)phenol]
25 | 100 to 1000 | COc1ccccc1-c1ccc2c(cnn2-c2ccc(F)c(O)c2)c1 [Compound 5.20, 2-Fluoro-5-(5-(2-methoxyphenyl)-1H-indazol-1-yl)phenol]
26 | 1000 to 30000 | COc1cccc(-c2ccc3c(cnn3-c3ccc(F)c(O)c3)c2)c1 [Compound 5.21, 2-Fluoro-5-(5-(3-methoxyphenyl)-1H-indazol-1-yl)phenol]
27 | 1000 to 30000 | O=C(O)c1ccccc1-c1ccc2c(cnn2-c2ccc(F)c(O)c2)c1 [Compound 5.23, 2-(1-(4-Fluoro-3-hydroxyphenyl)-1H-indazol-5-yl)benzoic acid]
28 | 1000 to 30000 | O=C(O)c1cccc(-c2ccc3c(cnn3-c3ccc(F)c(O)c3)c2)c1 [Compound 5.24, 3-(1-(4-Fluoro-3-hydroxyphenyl)-1H-indazol-5-yl)benzoic acid]
29 | 100 to 1000 | Oc1ccc(-c2ncc3c(cnn3-c3ccc(F)c(O)c3)n2)c(Cl)c1 [Compound 5.27, 5-(5-(2-Chloro-4-hydroxyphenyl)-1H-pyrazolo[4,3-d]pyrimidin-1-yl)-2-fluorophenol]
30 | 100 to 1000 | N#Cc1ccccc1-c1ccc2c(cnn2-c2ccc(F)c(O)c2)c1 [Compound 6, 2-(1-(4-Fluoro-3-hydroxyphenyl)-1H-indazol-5-yl)benzonitrile]
31 | 100 to 1000 | N#Cc1cccc(-c2ccc3c(cnn3-c3ccc(F)c(O)c3)c2)c1 [Compound 6.01, 3-(1-(4-Fluoro-3-hydroxyphenyl)-1H-indazol-5-yl)benzonitrile]
32 | 100 to 1000 | Oc1cc(-n2ncc3cc(-c4cncc(F)c4)ccc32)cc(F)c1F [Compound 7.04, 2,3-Difluoro-5-(5-(5-fluoropyridin-3-yl)-1H-indazol-1-yl)phenol]
33 | 100 to 1000 | Oc1ccc(-c2ccc3c(cnn3-c3ccc(F)c(O)c3F)c2)cc1Cl [Compound 8, 3-(5-(3-Chloro-4-hydroxyphenyl)-1H-indazol-1-yl)-2,6-difluorophenol]
34 | 100 to 1000 | Oc1cc(-n2ncc3cc(-c4ccc(O)c(Cl)c4)cnc32)ccc1F [Compound 8.01, 2-Chloro-4-(1-(4-fluoro-3-hydroxyphenyl)-1H-pyrazolo[3,4-b]pyridine-5-yl)phenol]
35 | 100 to 1000 | Oc1cc(-n2ncc3cc(-c4ccc(O)c(Cl)c4)ccc32)c(F)cc1F [Compound 8.02, 5-(5-(3-Chloro-4-hydroxyphenyl)-1H-indazol-1-yl)-2,4-difluorophenol]
36 | 1000 to 30000 | Oc1cc(-n2ncc3nc(-c4ccc(O)c(Cl)c4)ccc32)ccc1F [Compound 8.03, 2-Chloro-4-(1-(4-fluoro-3-hydroxyphenyl)-1H-pyrazolo[4,3-b]pyridine-5-yl)phenol]
37 | 100 to 1000 | CS(=O)(=O)Nc1ccc(-c2ccc3c(cnn3-c3ccc(F)c(O)c3)c2)c(Cl)c1 [Compound 10, N-(3-Chloro-4-(1-(4-fluoro-3-hydroxyphenyl)-1H-indazol-5-yl)phenyl)methanesulfonamide]
38 | 100 to 1000 | O=S(=O)(Nc1ccc(-c2ccc3c(cnn3-c3ccc(F)c(O)c3)c2)cc1)c1ccccc1 [Compound 11.01, N-(4-(1-(4-Fluoro-3-hydroxyphenyl)-1H-indazol-5-yl)phenyl)benzenesulfonamide]
39 | 1000 to 30000 | O=C(O)c1ccc(-c2ccc3c(cnn3-c3ccc(F)c(O)c3)c2)c(Cl)c1 [Compound 12, 3-Chloro-4-(1-(4-Fluoro-3-hydroxyphenyl)-1H-indazol-5-yl)benzoic acid]
40 | 100 to 1000 | NC(=O)c1ccc(-c2ccc3c(cnn3-c3ccc(F)c(O)c3)c2)c(Cl)c1 [Compound 13, 3-Chloro-4-(1-(4-fluoro-3-hydroxyphenyl)-1H-indazol-5-yl)benzamide]
41 | 1000 to 30000 | O=C(O)CCOc1ccc(-c2ccc3c(cnn3-c3ccc(F)c(O)c3)c2)cc1 [Compound 15, 3-(4-(1-(4-Fluoro-3-hydroxyphenyl)-1H-indazol-5-yl)phenoxy)propanoic acid]
